Results from ChEMBL document CHEMBL6134865, “Rational Design of Methylene Blue-Raloxifene Conjugates for Efficient Breast Tumor Elimination Triggered by ERα Degradation” (J Med Chem, 2025).
pIC50: −log10 of the molar value. Activity calls are given as the source filed them. The calls are words filed in the database; no cut-off is given here.

Legend:
MCF7 [1] = assay: cells; settings: Homo sapiens, MCF7, light or radiation study
Description: Antiproliferative activity against human MCF7 cells assessed as inhibition of cell proliferation incubated for 48 hrs with 660 nm 0.4 W/cm2 light irradiation for 5 min at 6th hr of incubation time by MTT assay

MCF7 [2] = assay: cells; settings: Homo sapiens, MCF7, light or radiation study; remark: listed apart in the source
Description: Antiproliferative activity against human MCF7 cells assessed as inhibition of cell proliferation incubated for 48 hrs with 660 nm 0.4 W/cm2 light irradiation for 1 min at 6th hr of incubation time by MTT assay

MCF7 [3] = assay: cells; settings: Homo sapiens, MCF7, light or radiation study; remark: listed apart in the source
Description: Antiproliferative activity against human MCF7 cells assessed as inhibition of cell proliferation incubated for 48 hrs with 660 nm 0.4 W/cm2 light irradiation for 2 min at 6th hr of incubation time by MTT assay

MCF7 [4] = assay: cells; settings: Homo sapiens, MCF7, light or radiation study; remark: listed apart in the source
Description: Antiproliferative activity against human MCF7 cells assessed as inhibition of cell proliferation incubated for 48 hrs with 660 nm 0.4 W/cm2 light irradiation for 4 min at 6th hr of incubation time by MTT assay

MCF7 [5] = assay: cells; settings: Homo sapiens, MCF7, 48 h
Description: Antiproliferative activity against human MCF7 cells assessed as inhibition of cell proliferation incubated for 48 hrs by MTT assay

MCF7 [6] = assay: cells; settings: Homo sapiens, MCF7, light or radiation study; remark: listed apart in the source
Description: Antiproliferative activity against human MCF7 cells assessed as inhibition of cell proliferation incubated for 48 hrs with 660 nm 0.4 W/cm2 light irradiation for 3 min at 6th hr of incubation time by MTT assay

in vivo [7] = settings: Sprague-Dawley, rat, iv, 5 mg/kg
Description: Cmax in Sprague-Dawley rat at 5 mg/kg, iv measured after 0.5 to 168 hrs by LC-MS analysis

in vivo [8] = settings: Sprague-Dawley, rat, iv, 5 mg/kg; remark: listed apart in the source
Description: Volume of distribution at steady state in Sprague-Dawley rat at 5 mg/kg, iv measured after 0.5 to 168 hrs by LC-MS analysis

in vivo [9] = settings: Sprague-Dawley, rat, po, 15 mg/kg
Description: Tmax in Sprague-Dawley rat at 15 mg/kg, po administered via gavage and measured after 0.5 to 168 hrs by LC-MS analysis

in vivo [10] = settings: Sprague-Dawley, rat, po, 15 mg/kg; remark: listed apart in the source
Description: Cmax in Sprague-Dawley rat at 15 mg/kg, po administered via gavage and measured after 0.5 to 168 hrs by LC-MS analysis

in vivo [11] = settings: Sprague-Dawley, rat, po, 15 mg/kg; remark: listed apart in the source
Description: AUC (0 to infinity) in Sprague-Dawley rat at 15 mg/kg, po administered via gavage and measured after 0.5 to 168 hrs by LC-MS analysis

in vivo [12] = settings: Sprague-Dawley, rat, iv, 5 mg/kg; remark: listed apart in the source
Description: AUC (0 to infinity) in Sprague-Dawley rat at 5 mg/kg, iv measured after 0.5 to 168 hrs by LC-MS analysis

[13] = Photothermal effect of compound in water assessed as increase in solution temperature at 0.5 to 10 uM in presence of 660 nm 0.4 W/cm2 light irradiation; format: functional; settings: dose 0.5-10 µM, time <= 5.0 min
[14] = Photothermal effect of compound in water assessed as increase in solution temperature measured up to 5 mins in presence of 660 nm 0.4 W/cm2 light irradiation; format: functional; settings: dose 0.5-10 µM
[15] = Induction of ROS generation in water at 1 uM irradiated with 660 nm 0.4 W/cm2 light up to 180 sec by DCFH probe based fluorescence spectra analysis; format: functional
[16] = Induction of ROS generation in water assessed as decrease in ABDA absorption peak at 5 uM irradiated with 660 nm 0.4 W/cm2 light up to 5 mins by ABDA probe based UV-vis absorption spectra analysis; format: functional
MCF7 [17] = assay: Induction of ROS generation in human MCF7 cells assessed as cell percentage with elevated ROS at 1 uM incubated for 6 hrs followed by irradiation with 660 nm 0.4 W/cm2 light for 2 min by DCFH-DA probe based flow cytometric analysis (reference value: 0.2 %); format: functional; settings: time 362 min, 6.033 h
[18] = Toxicity in female BALB/c mouse xenografted with human MCF7 cells assessed as change in AST level at 5 mg/kg, iv measured after 14 days; format: organism-based; settings: in vivo, 336 h, time 14 day
[19] = Toxicity in female BALB/c mouse xenografted with human MCF7 cells assessed as change in ALT level at 5 mg/kg, iv measured after 14 days; format: organism-based; settings: in vivo, 336 h, time 14 day
[20] = Toxicity in female BALB/c mouse xenografted with human MCF7 cells assessed as change in blood urea nitrogen level at 5 mg/kg, iv measured after 14 days; format: organism-based; settings: in vivo, 336 h, time 14 day
MCF7 [21] = assay: Antitumor activity against human MCF7 cells xenografted in female BALB/c mouse model assessed as tumor growth inhibition at 5 mg/kg, iv measured after 14 days relative to control; format: functional; settings: MCF7, 336 h, time 14 day, read-out: TGI
[22] = Toxicity in female BALB/c mouse xenografted with human MCF7 cells assessed as change in creatinine level at 5 mg/kg, iv measured after 14 days; format: organism-based; settings: in vivo, 336 h, time 14 day
[23] = Toxicity in female BALB/c mouse xenografted with human MCF7 cells assessed as change in body weight at 5 mg/kg, iv measured after 14 days; format: organism-based; settings: in vivo, 336 h, time 14 day

pIC50 (MCF7 [1])	pIC50 (MCF7 [2])	pIC50 (MCF7 [3])	pIC50 (MCF7 [4])	pIC50 (MCF7 [5])	pIC50 (MCF7 [6])	SMILES	Activity [15]	Activity [16]	Activity (MCF7 [17])	also measured
5.26	< 4.00	< 4.00	5.17	< 4.00	4.85	CN(C)c1ccc2nc3ccc(N(C)C)cc3[s+]c2c1 [METHYLENE BLUE ANHYDROUS]				
						CC/C(=C(\c1ccccc1)c1ccc(OCCN(C)C)cc1)c1ccccc1 [TAMOXIFEN]				Cmax (in vivo [7]): 15.9 ng/mL; Vd (in vivo [8]): 221 L/kg; Tmax (in vivo [9]): 16 h; Cmax (in vivo [10]): 11.7 ng/mL; AUC(0-inf) (in vivo [11]): 311 ng·h/mL; AUC(0-inf) (in vivo [12]): 295 ng·h/mL
6.20	5.26	5.41	5.87	< 4.00	5.75	CCN(CC)c1ccc2nc3c4ccccc4/c(=N\CCC(=O)NCCCOc4ccc(C(=O)c5c(-c6ccc(O)cc6)sc6cc(O)ccc56)cc4)cc-3sc2c1	Active	Active	4.2%	Activity [13]: Time-dependent-effect; Activity [14]: Dose-dependent-effect
6.48	5.33	6.03	6.42	< 4.00	6.14	CCN(CC)c1ccc2nc3c4ccccc4/c(=N\CCCCC(=O)NCCCOc4ccc(C(=O)c5c(-c6ccc(O)cc6)sc6cc(O)ccc56)cc4)cc-3sc2c1	Active	Active	4.8%	
				5.17		O=C(c1ccc(OCCN2CCCCC2)cc1)c1c(-c2ccc(O)cc2)sc2cc(O)ccc12 [RALOXIFENE]				
						C[C@]12CC[C@@H]3c4ccc(O)cc4C[C@@H](CCCCCCCCC[S+]([O-])CCCC(F)(F)C(F)(F)F)[C@H]3[C@@H]1CC[C@@H]2O (some centres undefined) [FULVESTRANT]				Activity [18]: Non-toxic; Activity [19]: Non-toxic; Activity [20]: Non-toxic; inhibition in vivo at 5 mg/kg (MCF7 [21]): 95.4%; Activity [22]: Non-toxic; Activity [23]: Non-toxic
